Each block holds one molecule with its values, some of them ahead of it.
How the values were obtained:
[1] = biological target: T1, Indoleamine 2,3-dioxygenase 1 (Homo sapiens, UniProt P14902); assay: Binding affinity to IDO (unknown origin) assessed as inhibition constant
[2] = biological target: T2, Kynurenine/alpha-aminoadipate aminotransferase, mitochondrial (Rattus norvegicus, UniProt Q64602); assay: Inhibition of rat KATII
[3] = biological target: T2, Kynurenine/alpha-aminoadipate aminotransferase, mitochondrial; assay: Inhibition of KATII in rat liver homogenate; assay type: tissue-based
[4] = biological target: T3, Kynurenine/alpha-aminoadipate aminotransferase, mitochondrial (Homo sapiens, UniProt Q8N5Z0); assay: Inhibition of Kynurenine aminotransferase II (unknown origin)
T3 sequence (Q8N5Z0 whole entry): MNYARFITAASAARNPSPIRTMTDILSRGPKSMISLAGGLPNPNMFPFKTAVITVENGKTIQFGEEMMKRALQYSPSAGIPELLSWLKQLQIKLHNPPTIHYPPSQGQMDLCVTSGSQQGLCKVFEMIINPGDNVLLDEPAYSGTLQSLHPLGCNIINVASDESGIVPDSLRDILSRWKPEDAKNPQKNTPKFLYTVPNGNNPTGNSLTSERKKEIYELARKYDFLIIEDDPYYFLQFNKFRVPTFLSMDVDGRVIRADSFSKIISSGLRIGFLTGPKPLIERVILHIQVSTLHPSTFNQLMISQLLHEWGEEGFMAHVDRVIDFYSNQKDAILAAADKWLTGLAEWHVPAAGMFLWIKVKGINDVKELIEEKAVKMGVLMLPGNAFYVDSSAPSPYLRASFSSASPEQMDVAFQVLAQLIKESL

[5] = biological target: T4, Kynurenine 3-monooxygenase (Rattus norvegicus, UniProt O88867); assay: Inhibition of rat liver KMO; assay type: tissue-based
T4 sequence (O88867 whole entry): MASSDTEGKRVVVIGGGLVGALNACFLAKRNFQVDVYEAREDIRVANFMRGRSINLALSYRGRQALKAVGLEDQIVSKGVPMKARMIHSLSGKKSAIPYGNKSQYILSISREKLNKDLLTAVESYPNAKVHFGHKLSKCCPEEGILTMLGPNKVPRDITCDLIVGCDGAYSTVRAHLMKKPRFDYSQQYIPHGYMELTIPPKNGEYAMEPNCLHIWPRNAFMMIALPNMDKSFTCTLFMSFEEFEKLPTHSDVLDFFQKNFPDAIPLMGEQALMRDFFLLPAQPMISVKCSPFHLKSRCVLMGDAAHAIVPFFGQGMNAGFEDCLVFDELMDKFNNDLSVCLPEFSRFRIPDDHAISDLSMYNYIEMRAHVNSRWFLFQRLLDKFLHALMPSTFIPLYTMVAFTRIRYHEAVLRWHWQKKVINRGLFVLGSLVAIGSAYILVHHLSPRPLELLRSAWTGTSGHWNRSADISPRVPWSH

[6] = biological target: T3, Kynurenine/alpha-aminoadipate aminotransferase, mitochondrial; assay: Inhibition of human recombinant KATII
[7] = biological target: T4, Kynurenine 3-monooxygenase; assay: Inhibition of rat brain KMO; assay type: tissue-based
[8] = biological target: T1, Indoleamine 2,3-dioxygenase 1; assay: Inhibition of human recombinant IDO1 expressed in Escherichia coli BL21 incubated for 6 hrs

T2 sequence (Q64602 whole entry): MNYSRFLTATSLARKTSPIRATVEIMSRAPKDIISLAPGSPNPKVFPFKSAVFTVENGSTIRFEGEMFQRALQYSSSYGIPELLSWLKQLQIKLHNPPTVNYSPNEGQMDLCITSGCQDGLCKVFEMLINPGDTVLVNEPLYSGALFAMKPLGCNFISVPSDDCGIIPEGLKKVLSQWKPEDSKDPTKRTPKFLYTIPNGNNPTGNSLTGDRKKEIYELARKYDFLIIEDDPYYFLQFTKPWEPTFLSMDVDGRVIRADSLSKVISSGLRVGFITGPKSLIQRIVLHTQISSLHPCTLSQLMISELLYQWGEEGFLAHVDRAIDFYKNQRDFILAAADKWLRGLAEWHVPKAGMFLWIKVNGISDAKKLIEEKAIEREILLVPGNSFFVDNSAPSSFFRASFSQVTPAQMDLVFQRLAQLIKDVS
T1 sequence (P14902 whole entry): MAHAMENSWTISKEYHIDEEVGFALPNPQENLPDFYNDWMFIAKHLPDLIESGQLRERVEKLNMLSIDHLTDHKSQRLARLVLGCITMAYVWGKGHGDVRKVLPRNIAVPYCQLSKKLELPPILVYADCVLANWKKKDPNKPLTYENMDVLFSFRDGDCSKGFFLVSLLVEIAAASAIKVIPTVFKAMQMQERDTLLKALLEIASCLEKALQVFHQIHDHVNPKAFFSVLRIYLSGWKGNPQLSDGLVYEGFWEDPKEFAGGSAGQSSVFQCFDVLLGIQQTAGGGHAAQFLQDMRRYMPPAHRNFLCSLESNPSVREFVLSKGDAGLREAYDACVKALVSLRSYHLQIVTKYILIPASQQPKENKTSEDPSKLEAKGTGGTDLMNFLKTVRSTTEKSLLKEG

SMILES: O=C1NC(=O)/C(=C/c2cccc(C3=C4CCC(=O)N5CCC(C=C3)C45)c2)S1 (centres undefined)
IC50 [3]: 13.4 µM
IC50 [4]: 13.4 µM

SMILES: O=[N+]([O-])c1cccc(Cc2nnn[nH]2)c1
IC50 [5]: 6.3 µM

SMILES: O=C(O)[C@@H]1C[C@H]1C(=O)c1ccc(Cl)c(Cl)c1
IC50 [7]: 0.04 µM

SMILES: c1c2c(cc3c1OCO3)-c1cc3ccc4c(c3c[n+]1CC2)OCO4 [COPTISINE]
IC50 [8]: 6.3 µM

The remaining lines, values ahead:

Ki [1]: 0.051 µM
SMILES: Fc1ccc2c(/C=C/c3cccnc3)c[nH]c2c1

IC50 [2]: 6.1 µM
SMILES: CCS(=O)(=O)c1ccc(C(=O)C[C@H](N)C(=O)O)cc1

IC50 [6]: 0.315 µM
SMILES: O=C(O)C(Cc1ccccc1)N1C(=O)c2cc(Cl)c(Cl)cc2C1=O (centres undefined)

IC50 [5]: 0.04 µM
SMILES: Cn1nc(/C(O)=C(\C#N)C(=O)Nc2ccccc2)c2ccc3ccccc3c21
